Data from US5468734A, “Prophylactic and remedial preparation for diseases attendant on hyperglycemia, and wholesome food” (Godo Shusei Co., Ltd., priority 1992, dated 1995).
“Also recorded” adds a separate entry of the source. Read-outs that look alike come from different tables or passages of the source.

How the values were obtained:
[1] = target: T1, sucrase (carbohydrase derived from rabbit small intestine mucous membrane) (Oryctolagus cuniculus, UniProt P07768); assay: Action to inhibit the hydrolytic activity of homogenate prepared from rabbit small intestine mucous membrane: sucrase inhibition; type: biochemical
T1 construct: suspended again in a 10 mM potassium phosphate buffer (pH: 7.0), thereby obtaining a crude enzyme suspension; from tissue; host or cells: rabbit small intestine (title: mucous membrane), homogenate, 60,000×g precipitate
Method: (§1) (Action to inhibit the hydrolytic activity of homogenate prepared from rabbit small intestine mucous membrane to carbohydrate)
(§2) A native kind of white rabbits (weight: 3.0-3.5 kg) were sacrificed by exsanguination to take out their small intestines.
(§3) After freezing and thawing the small intestines thus taken out, they were homogenized in a 5 mM EDTA buffer (pH: 7.0) and subjected to centrifugation for 60 minutes at 60,000×g. Precipitate thus formed was collected and suspended again in a 10 mM potassium phosphate buffer (pH: 7.0), thereby obtaining a crude enzyme suspension.
(§4) Sucrose (20 mM) and maltose (20 mM) were used as substrates.
(§5) Each reaction mixture was formulated so as to contain 350 microliters of a 100 mM maleate buffer (pH: 6.8), 100 microliters of a substrate solution, 50 microliters of the crude enzyme suspension and 50 microliters of a test solution. Substances to be tested were separately dissolved in a maleate buffer (pH: 6.8) before use.
(§6) Respective reactions were conducted for 15 minutes at 37° C.

[2] = system: maltase (carbohydrase derived from rabbit small intestine mucous membrane); assay: Action to inhibit the hydrolytic activity of homogenate prepared from rabbit small intestine mucous membrane: maltase inhibition; type: biochemical; settings: for Maltase inhibition rate: substrate maltose 20 mM, pH 6.8, 37° C., 15 minutes
Method: as §1, §2, §3, §4, §5, §6

rise in blood sugar [3] = assay: Action to depress the rise in blood sugar after sucrose loading to mice; type: in vivo, ICR male mice; settings: for Rise in blood sugar: average ± standard error
Text: (Action to depress the rise in blood sugar after carbohydrate loading)
ICR male mice (weight 30-35 g) were used in proportions of 5 mice per group.
After causing the mice to fast, sucrose or starch was orally administered in a proportion of 1 g/kg to the mice of each group, and at the same time substances to be tested were orally given to mice of their corresponding groups.
Blood was collected from the retroorbital sinus of each mouse before carbohydrate loading and upon elapsed times of 30 minutes, 60 minutes and 120 minutes after the loading to determine the concentration of glucose in the blood plasma by the glucose oxidase method.

rise in blood sugar [4] = assay: Action to depress the rise in blood sugar after starch loading to mice; type: in vivo, ICR male mice; settings: starch 1 g/kg; for Rise in blood sugar: average ± standard error
[5] = type: in vivo, ICR male mice
Text: (Action to depress increase in body weight of mice)
ICR male mice after the elapse of 5 weeks from their birth were used in proportions of 10 mice per group.
Mice of a control group were caused to freely ingest the same feed as those used in the run groups except that L-arabinose was not added.
The mice of each group were separately weighed after 10 days, 20 days, 30 days and 60 days from the beginning of the ingestion to determine their weight increases from the initial weights, thereby calculating an average value of the weights increased in each group. The amounts of the feeds and water ingested were also determined.

[6] = in vivo; cited from earlier work
[7] = 0.5%, 1.0%, 2.0% in feed, during the experiment

T1 sequence (P07768 1008-1827 limits assumed): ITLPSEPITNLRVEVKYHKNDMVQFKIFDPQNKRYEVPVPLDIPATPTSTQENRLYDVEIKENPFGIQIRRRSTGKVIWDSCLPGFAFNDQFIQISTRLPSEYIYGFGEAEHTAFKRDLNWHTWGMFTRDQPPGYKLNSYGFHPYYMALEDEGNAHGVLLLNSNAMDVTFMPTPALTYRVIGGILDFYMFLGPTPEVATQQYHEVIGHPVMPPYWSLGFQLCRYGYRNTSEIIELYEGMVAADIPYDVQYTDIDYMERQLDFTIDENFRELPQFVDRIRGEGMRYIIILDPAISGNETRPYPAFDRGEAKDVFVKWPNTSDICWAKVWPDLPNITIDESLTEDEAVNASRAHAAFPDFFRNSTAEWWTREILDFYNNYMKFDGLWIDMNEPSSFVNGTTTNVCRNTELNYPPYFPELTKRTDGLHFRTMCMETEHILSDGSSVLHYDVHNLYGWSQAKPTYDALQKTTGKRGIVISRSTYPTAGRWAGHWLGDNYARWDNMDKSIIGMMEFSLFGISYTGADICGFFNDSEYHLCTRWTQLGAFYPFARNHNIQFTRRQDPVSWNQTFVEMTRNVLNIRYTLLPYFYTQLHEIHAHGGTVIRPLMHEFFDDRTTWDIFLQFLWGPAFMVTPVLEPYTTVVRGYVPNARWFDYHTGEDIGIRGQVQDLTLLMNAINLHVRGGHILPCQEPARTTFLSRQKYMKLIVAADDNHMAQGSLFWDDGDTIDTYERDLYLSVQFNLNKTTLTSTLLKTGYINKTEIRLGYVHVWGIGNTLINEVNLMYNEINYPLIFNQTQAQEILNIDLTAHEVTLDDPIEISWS
T1 sequence (P07768 2-1007 partner limits assumed): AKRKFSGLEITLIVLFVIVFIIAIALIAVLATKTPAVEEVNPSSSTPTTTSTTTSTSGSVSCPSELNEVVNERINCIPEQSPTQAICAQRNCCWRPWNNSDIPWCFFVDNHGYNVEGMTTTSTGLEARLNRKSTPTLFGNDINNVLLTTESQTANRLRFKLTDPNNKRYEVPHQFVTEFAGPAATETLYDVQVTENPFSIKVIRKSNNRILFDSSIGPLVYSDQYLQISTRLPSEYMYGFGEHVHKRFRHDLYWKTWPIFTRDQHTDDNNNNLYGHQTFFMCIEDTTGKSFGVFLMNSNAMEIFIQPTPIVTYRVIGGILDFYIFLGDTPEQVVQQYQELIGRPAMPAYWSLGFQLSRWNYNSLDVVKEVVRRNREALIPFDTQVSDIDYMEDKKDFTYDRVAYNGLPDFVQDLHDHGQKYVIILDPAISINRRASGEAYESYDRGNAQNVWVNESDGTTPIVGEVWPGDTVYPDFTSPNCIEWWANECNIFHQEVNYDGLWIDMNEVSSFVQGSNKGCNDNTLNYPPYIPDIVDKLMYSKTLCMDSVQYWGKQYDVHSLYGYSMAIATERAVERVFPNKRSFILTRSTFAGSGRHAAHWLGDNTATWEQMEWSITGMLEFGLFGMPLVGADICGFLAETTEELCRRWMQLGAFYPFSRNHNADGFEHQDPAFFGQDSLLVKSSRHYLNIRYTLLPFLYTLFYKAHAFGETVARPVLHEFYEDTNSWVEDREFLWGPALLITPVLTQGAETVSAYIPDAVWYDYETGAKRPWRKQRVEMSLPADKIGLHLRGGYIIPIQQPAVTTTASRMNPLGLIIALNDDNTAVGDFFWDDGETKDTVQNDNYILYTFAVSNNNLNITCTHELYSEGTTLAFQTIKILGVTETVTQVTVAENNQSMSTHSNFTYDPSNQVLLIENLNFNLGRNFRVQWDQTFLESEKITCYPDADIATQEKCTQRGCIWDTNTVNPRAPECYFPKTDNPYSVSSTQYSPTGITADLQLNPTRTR

O=C[C@H](O)[C@@H](O)[C@@H](O)CO [L-Arabinose, L-arabinose]
sucrase-inhibiting action (in words) [1]: strong sucrase-inhibiting action | inhibition at 250 µg/mL ([1]; 0.25 h, 25 mg/dl, substrate sucrose 20 mM, pH 6.8, 37° C., 15 minutes, read-out: Sucrase inhibition rate): 25.3% | inhibition at 500 µg/mL ([1]; 0.25 h, 50 mg/dl, substrate sucrose 20 mM, pH 6.8, 37° C., 15 minutes, read-out: Sucrase inhibition rate): 37.8% | inhibition at 1000 µg/mL ([1]; 0.25 h, 100 mg/dl, substrate sucrose 20 mM, pH 6.8, 37° C., 15 minutes, read-out: Sucrase inhibition rate): 52% | inhibition at 2000 µg/mL ([1]; 0.25 h, 200 mg/dl, substrate sucrose 20 mM, pH 6.8, 37° C., 15 minutes, read-out: Sucrase inhibition rate): 66.3% | maltase-inhibiting action (in words) [2]: strong sucrase-inhibiting action and maltase-inhibiting action | Maltase inhibition rate ([2]; 25 mg/dl): 28.5% | Maltase inhibition rate ([2]; 50 mg/dl): 35.8% | Maltase inhibition rate ([2]; 100 mg/dl): 45.7% | Maltase inhibition rate ([2]; 200 mg/dl): 47.4% | Rise in blood sugar (rise in blood sugar [3]; sucrose 1 g/kg, dose 25 mg/kg oral, after 30 min.): 71.7 Δmg/dl | Rise in blood sugar (rise in blood sugar [3]; sucrose 1 g/kg, dose 25 mg/kg oral, after 60 min.): 49.4 Δmg/dl | Rise in blood sugar (rise in blood sugar [3]; sucrose 1 g/kg, dose 50 mg/kg oral, after 30 min.): 62.9 Δmg/dl | Rise in blood sugar (rise in blood sugar [3]; sucrose 1 g/kg, dose 50 mg/kg oral, after 60 min.): 37.3 Δmg/dl | Rise in blood sugar (rise in blood sugar [3]; sucrose 1 g/kg, dose 50 mg/kg oral, after 120 min.): 21.5 Δmg/dl | Rise in blood sugar (rise in blood sugar [3]; sucrose 1 g/kg, dose 100 mg/kg oral, after 30 min.): 41.8 Δmg/dl | Rise in blood sugar (rise in blood sugar [3]; sucrose 1 g/kg, dose 100 mg/kg oral, after 60 min.): 30.4 Δmg/dl | Rise in blood sugar (rise in blood sugar [3]; sucrose 1 g/kg, dose 100 mg/kg oral, after 120 min.): 20.3 Δmg/dl | action to depress the rise in blood sugar due to sucrose loading (in words) (rise in blood sugar [3]; sucrose 1 g/kg, orally 25, 50 and 100 mg/kg (L-arabinose, D-xylose) or 100 mg/kg (others)): depressed in dependence on the dose | action to depress the rise in blood sugar for sucrose or starch loading (in words) (rise in blood sugar [3]; sucrose or starch loading, summary statement): remarkably effective in depressing the rise in blood sugar after carbohydrate loading; also recorded: effective action to depress the rise in blood sugar | depressing action on the rise in blood sugar due to starch loading (in words) (rise in blood sugar [4]): depressing action on the rise in blood sugar due to starch loading in dependence on the dose | Rise in blood sugar (rise in blood sugar [4]; dose 25 mg/kg oral, after 30 min.): 91.1 Δmg/dl | Rise in blood sugar (rise in blood sugar [4]; dose 25 mg/kg oral, after 60 min.): 68.5 Δmg/dl | Rise in blood sugar (rise in blood sugar [4]; dose 25 mg/kg oral, after 120 min.): 29.8 Δmg/dl | Rise in blood sugar (rise in blood sugar [4]; dose 50 mg/kg oral, after 30 min.): 71.4 Δmg/dl | Rise in blood sugar (rise in blood sugar [4]; dose 50 mg/kg oral, after 60 min.): 54.6 Δmg/dl | Rise in blood sugar (rise in blood sugar [4]; dose 100 mg/kg oral, after 30 min.): 59.6 Δmg/dl | Rise in blood sugar (rise in blood sugar [4]; dose 100 mg/kg oral, after 60 min.): 48.3 Δmg/dl | Rise in blood sugar (rise in blood sugar [4]; dose 100 mg/kg oral, after 120 min.): 24.6 Δmg/dl | Weight increase ([5]; 0.5% in feed (Group 1 / A1), after 10 days): 5.9 g | Weight increase ([5]; 0.5% in feed (Group 1 / A1), after 20 days): 9.2 g | Weight increase ([5]; 0.5% in feed (Group 1 / A1), after 30 days): 12.4 g | Weight increase ([5]; 0.5% in feed (Group 1 / A1), after 60 days): 15.0 g | death [5, 7]: no death at all | general medical condition and behavior [5, 7]: no abnormality in general medical condition and behavior | weight increase compared with control group (in words) ([5]; 0.5%, 1.0%, 2.0% in feed, up to 60 days): less weight increases compared with the mice of the control group | Weight increase ([5]; 1.0% in feed (Group 2 / A2), after 10 days): 5.3 g | Weight increase ([5]; 1.0% in feed (Group 2 / A2), after 20 days): 8.0 g | Weight increase ([5]; 1.0% in feed (Group 2 / A2), after 30 days): 11.7 g | Weight increase ([5]; 1.0% in feed (Group 2 / A2), after 60 days): 13.8 g | Weight increase ([5]; 2.0% in feed (Group 3 / A3), after 10 days): 4.7 g | Weight increase ([5]; 2.0% in feed (Group 3 / A3), after 20 days): 7.2 g | Weight increase ([5]; 2.0% in feed (Group 3 / A3), after 30 days): 10.2 g | Weight increase ([5]; 2.0% in feed (Group 3 / A3), after 60 days): 12.1 g | uptake from the digestive tract [6]: hard to be taken up from the digestive tract
